Converted amounts (≈) assume the structure as drawn.
system: Vero cells; experiment: Vero cell cytotoxicity MTT assay; assay type: cell-based, green monkey; details: 72 h, concentration that inhibited 50% viability

In the case of O=C(Nc1nc(-c2ccccn2)cs1)c1ccccc1OCc1ccccc1 [Compound 39], the “EC50, μM” value is reported as “insol”.

system: M. tuberculosis H37Rv; experiment: M. tuberculosis H37Rv MIC assay; assay type: cell-based, Mycobacterium tuberculosis; details: not given

With “2-[N-(Benzoyl)amino]-4-(thiazol-2-yl)thiazole [Compound 92]” the “MIC, μM (7H9-glucose)” value was over 25 µM.

same assay, conditions: M. tuberculosis H37Rv

With “2-[N-(Benzoyl)amino]-4-(thiazol-2-yl)thiazole [Compound 92]” the “antitubercular activity (in words)” value was “inactive”.
With O=C(Nc1nc(-c2ccccc2)cs1)c1ccccc1 [Compound 90, 2-[N-(Benzoyl)amino]-4-(phenyl)thiazole] the “antitubercular activity (in words)” value was “obliterates all activity”.
With O=C(Nc1nc(-c2cnccn2)cs1)c1ccccc1 [Compound 91, 2-[N-(Benzoyl)amino]-4-(pyrazin-2-yl)thiazole] the “antitubercular activity (in words)” value was “inactive”.

same assay, conditions: M. tuberculosis H37Rv; GAST medium (glycerol and alanine); […]

For “2-[N-(Benzoyl)amino]-4-(thiazol-2-yl)thiazole [Compound 92]”, the “MIC, μM (GAST)” value was at least 25 µM.

same assay, conditions: Mycobacterium tuberculosis, H37RV, read-out: MIC, μM (7H9-butyrate)

First: Cc1ccccc1C(=O)Nc1nc(-c2ccccn2)cs1 [Compound 36]
Second: O=C(Nc1nc(-c2ccccn2)cs1)c1ccccc1O [Compound 45]
The MIC of the first is lower: 0.19 to 0.39 µM (≈ 0.0561 to 0.115 µg/mL) for the first, 1.6 to 3.1 µM (≈ 0.476 to 0.922 µg/mL) for the second.

First: Cc1cccc(C(=O)Nc2nc(-c3ccccn3)cs2)c1 [Compound 37]
Second: COc1ccc(C(=O)Nc2nc(-c3ccccn3)cs2)cc1 [Compound 44]
The MIC of the first is lower: 0.049 to 0.098 µM (≈ 0.0145 to 0.0289 µg/mL) for the first, 0.19 to 0.39 µM (≈ 0.0592 to 0.121 µg/mL) for the second.

First: COc1ccccc1C(=O)Nc1nc(-c2ccccn2)cs1 [Compound 42]
Second: O=C(Nc1nc(-c2ccccn2)cs1)c1ccccc1Cl [Compound 54]
The MIC of the first is higher: 3.1 to 6.3 µM (≈ 0.965 to 1.96 µg/mL) for the first, 0.19 to 0.39 µM (≈ 0.06 to 0.123 µg/mL) for the second.

First: CC(=O)c1ccc(C(=O)Nc2nc(-c3ccccn3)cs2)cc1 [Compound 48]
Second: O=C(Nc1nc(-c2ccccn2)cs1)c1ccccn1 [Compound 68]
The MIC of the first is lower: 0.19 to 0.39 µM (≈ 0.0614 to 0.126 µg/mL) for the first, 3.1 to 6.3 µM (≈ 0.875 to 1.78 µg/mL) for the second.

Work on O=C(Nc1nc(-c2ccccn2)cs1)c1c(F)cccc1Cl [Compound 66] yielded an MIC of 0.39 to 0.78 µM (≈ 0.13 to 0.26 µg/mL).

same assay, conditions: Mycobacterium tuberculosis, H37RV, read-out: MIC, μM (7H9-glucose)

First: FC(F)(F)c1ccccc1Nc1nc(-c2ccccn2)cs1 [Compound 13]
Second: c1ccc(Nc2nc(-c3ccccn3)cs2)nc1 [Compound 17]
The MIC of the first is higher: 12 to 25 µM (≈ 3.86 to 8.03 µg/mL) for the first, 0.78 to 1.6 µM (≈ 0.198 to 0.407 µg/mL) for the second.

CCCC(=O)Nc1nc(-c2ccccn2)cs1 [Compound 21, N-[4-(2-pyridinyl)-1,3-thiazol-2-yl)butyramide] and CC1CC1C(=O)Nc1nc(-c2ccccn2)cs1 (stereo not shown) [Compound 29] cannot be ordered by MIC: 12 to 25 µM (≈ 2.97 to 6.18 µg/mL) for the first, 6.3 to 12.5 µM (≈ 1.63 to 3.24 µg/mL) for the second.

Compared with O=C(Nc1nc(-c2ccccn2)cs1)C1CC1 [Compound 25], O=C(Nc1nc(-c2ccccn2)cs1)c1ccco1 [Compound 30] is lower in MIC: 12 to 25 µM (≈ 2.94 to 6.13 µg/mL) for the first, 3.1 to 6.3 µM (≈ 0.841 to 1.71 µg/mL) for the second.

First: O=C(Nc1nc(-c2ccccn2)cs1)c1ccoc1 [Compound 31]
Second: O=C(Nc1nc(-c2ccccn2)cs1)c1ccsc1 [Compound 33]
The MIC of the first is higher: 3.1 to 6.3 µM (≈ 0.841 to 1.71 µg/mL) for the first, 1.6 to 3.1 µM (≈ 0.46 to 0.891 µg/mL) for the second.

O=C(Nc1nc(-c2ccccn2)cs1)c1cccs1 [Compound 32] and O=C(Nc1nc(-c2ccccn2)cs1)c1ccncc1 [Compound 70] fall in the same range of MIC: 1.6 to 3.1 µM (≈ 0.46 to 0.891 µg/mL) for the first, 1.6 to 3.1 µM (≈ 0.452 to 0.875 µg/mL) for the second.

First: Cc1cccc(C(=O)Nc2nc(-c3ccccn3)cs2)c1 [Compound 37]
Second: O=C(Nc1nc(-c2ccccn2)cs1)c1cccc(Br)c1 [Compound 52]
The MIC of the first is higher: 0.19 to 0.39 µM (≈ 0.0561 to 0.115 µg/mL) for the first, 0.098 to 0.19 µM (≈ 0.0353 to 0.0684 µg/mL) for the second.

Compared with O=C(Nc1nc(-c2ccccn2)cs1)c1cccc(OCc2ccccc2)c1 [Compound 40], O=C(Nc1nc(-c2ccccn2)cs1)c1ccc(OCc2ccccc2)cc1 [Compound 41] is lower in MIC: 0.39 to 0.78 µM (≈ 0.151 to 0.302 µg/mL) for the first, 0.19 to 0.39 µM (≈ 0.0736 to 0.151 µg/mL) for the second.

COc1cccc(C(=O)Nc2nc(-c3ccccn3)cs2)c1 [Compound 43] and O=C(Nc1nc(-c2ccccn2)cs1)c1cccc(Cl)c1 [Compound 55, N-(3-Chlorobenzoyl)-4-(2-pyridinyl)-1,3-thiazol-2-amine] fall in the same range of MIC: 0.19 to 0.39 µM (≈ 0.0592 to 0.121 µg/mL) for the first, 0.19 to 0.39 µM (≈ 0.06 to 0.123 µg/mL) for the second.

First: O=C(Nc1nc(-c2ccccn2)cs1)c1ccccc1O [Compound 45]
Second: O=C(Nc1nc(-c2ccccn2)cs1)c1ccccc1Br [Compound 51]
The MIC of the first is higher: 1.6 to 3.1 µM (≈ 0.476 to 0.922 µg/mL) for the first, 0.39 to 0.78 µM (≈ 0.14 to 0.281 µg/mL) for the second.

First: O=C(Nc1nc(-c2ccccn2)cs1)c1ccccc1[N+](=O)[O-] [Compound 49]
Second: O=C(Nc1nc(-c2ccccn2)cs1)c1ccccc1Cl [Compound 54]
The MIC of the first is higher: 1.6 to 3.1 µM (≈ 0.522 to 1.01 µg/mL) for the first, 0.39 to 0.78 µM (≈ 0.123 to 0.246 µg/mL) for the second.

First: O=C(Nc1nc(-c2ccccn2)cs1)c1cccc([N+](=O)[O-])c1 [Compound 50]
Second: O=C(Nc1nc(-c2ccccn2)cs1)c1cccc(F)c1 [Compound 58]
The MIC of the first is higher: 1.6 to 3.1 µM (≈ 0.522 to 1.01 µg/mL) for the first, 0.19 to 0.39 µM (≈ 0.0569 to 0.117 µg/mL) for the second.

Compared with O=C(Nc1nc(-c2ccccn2)cs1)c1ccccc1F [Compound 57], O=C(Nc1nc(-c2ccccn2)cs1)c1ccc(F)cc1F [Compound 61] is lower in MIC: 1.6 to 3.1 µM (≈ 0.479 to 0.928 µg/mL) for the first, 0.39 to 0.78 µM (≈ 0.124 to 0.248 µg/mL) for the second.

Compared with O=C(Nc1nc(-c2ccccn2)cs1)c1ccc(F)c(F)c1 [Compound 64], O=C(Nc1nc(-c2ccccn2)cs1)c1cccnc1Cl [Compound 67] is lower in MIC: 1.6 to 3.1 µM (≈ 0.508 to 0.984 µg/mL) for the first, 0.39 to 0.78 µM (≈ 0.124 to 0.247 µg/mL) for the second.

same assay, conditions: relative to 1

For O=C(Nc1nc(-c2ccccn2)cs1)c1ccccc1 [Compound 35, 2-[N-(Benzoyl)amino]-4-(pyridin-2-yl)thiazole], the “fold better MIC than the corresponding N-phenyl 1” value was 64 fold.

same assay, conditions: relative to 35

For Cc1cccc(C(=O)Nc2nc(-c3ccccn3)cs2)c1 [Compound 37], the “fold increase in potency relative to benzoyl 35” value was 2- to 4 fold.

For O=C(Nc1cc(-c2ccccn2)cs1)c1ccccc1 [Compound 75, 2-[N-(Benzoyl)amino]-4-(pyridin-2-yl)thiophene], the “fold loss of potency relative to the parent thiazole 35” value was at least 64 fold.
With O=C(Nc1nc(-c2ccccn2)c[nH]1)c1ccccc1 [Compound 78, 2-[N-(Benzoyl)amino]-4-(pyridin-2-yl)imidazole] the “fold loss of potency relative to the parent thiazole 35” value was 16- to 64 fold.
In the case of O=C(Nc1nc(-c2ccccn2)co1)c1ccccc1 [Compound 82, 2-[N-(Benzoyl)amino]-4-(pyridin-2-yl)oxazole], the “fold loss of potency relative to the parent thiazole 35” value is reported as 16- to 64 fold.

same assay, conditions: relative to 69

In the case of O=C(Nc1nc(-c2ccccn2)cs1)c1cccnc1Cl [Compound 67], the “fold improvement of activity over nicotinoyl 69” value is reported as 8- to 16 fold.

same assay, conditions: relative to oxazole 82

With O=C(Nc1nnc(-c2ccccn2)o1)c1ccccc1F [Compound 83, 2-[N-(2-Fluorobenzoyl)amino]-5-(pyridin-2-yl)-1,3,4-oxadiazole] the “regain in potency relative to 82” value was 2–4.

system: Mtb; experiment: not given; details: reported values; cited from earlier work

Point of comparison: Clc1ccc(Nc2nc(-c3ccccn3)cs2)nc1 [Compound 18], “reported MIC (HTS results)” value 0.35 µM. Against it:
- Fc1ccc(Nc2nc(-c3ccccn3)cs2)cc1 [Compound 12] — 5.7-fold higher, 2 µM
- Cc1cccc(Nc2nc(-c3ccccn3)cs2)n1 [Compound 19] — the same, 0.35 µM

For FC(F)(F)c1ccccc1Nc1nc(-c2ccccn2)cs1 [Compound 13], the “reported MIC (HTS results)” value is listed as under 0.3 µM.
